IC50 data for 6 molecules are collected here from patent publication US9133170B2, “Inhibitors of HCV NS5A” (priority 2011, dated 2015).

pIC50: −log10 of the molar value.

The experiment concerns GT-1a pRLuc H77 1b 75 S/I subgenomic replicon cell line. In words: HCV GT-1a subgenomic replicon Renilla luciferase reporter assay. Particulars: Hepatitis C virus, GT1A, Huh-7, 72 h, read-out: GT-1a-IC50. Type of experiment: cell-based. From the text: Determination of compounds HCV GT1b inhibitory replicon activity using the replicon luciferase reporter assay
The 2209-23 cell line was developed at Roche by stable transfection of the hepatoma cell line Huh-7 with a GT-1b Con1 subgenomic bicistronic replicon as previously described. Subgenomic replicon cell line was established in cured Huh7 cells, obtained from R. Bartenschlager (J Virol. 2003 March; 77 (5):3007-19) The GT-1a H77 subgenomic replicon vector pRLuc H77 1b 75 S/I, was created by replacing the non structural region of the GT-1b Con1 subgenomic replicon by the one of the H77 strain, except for the first 75 amino acids of the NS3 protein that are from GT-1b Con1 strain. (J Virol. 2001 77:5352-59) The GT-1a pRLuc H77 1b 75 S/I subgenomic replicon cell line was established in cured Huh7 cells, obtained from R. Bartenschlager (J Virol. 2003 March; 77 (5):3007-19).
All the subgenomic replicon cell lines were cultured in Dulbecco's Modified Eagle Medium (DMEM-Glutamax™-I; Invitrogen Cat #10569-010). The medium was supplemented with 10% Fetal Bovine Serum (Invitrogen Cat #10082-147), 1% penicillin/streptomycin (Mediatech Cat # 30-002-CI) and 500 μg/ml of G418 (Mediatech Cat #30-234-CI). Cells were maintained at 37° C. in a humidified 5% CO2 atmosphere.
2209-23 cells were plated at a cell density of 5000 cells per well in 96 well plates (Becton Dickinson, Cat #35 3296). Cells were plated in 90 μl of Dulbecco's Modified Eagle Medium (DMEM-Glutamax™-I), (Invitrogen Cat #10569-010) medium was supplemented with 5% Fetal Bovine Serum (Invitrogen Cat #10082-147), 1% penicillin/streptomycin (Mediatech Cat #30-002-CI). The pRluc H77 1b 75 S/I cells were plated in 96-well plate at 3000 cells/well in DMEM-Glutamax™-I containing 5% FBS and 1% penicillin/streptomycin in 90 μl final volume. Cells were allowed to equilibrate for 24 hours at 37° C. and 5% CO2 at which time compounds were added. Compounds (or medium as a control) were added 24 hours post-plating in 3 fold dilutions at a final DMSO concentration of 1% in 10 ul volume. Renilla luciferase reporter signal was read 72 hours after addition of compounds using the Renilla Luciferase Assay System (Promega, cat #E2820). EC50 values were defined as the compound concentration at which a 50% reduction in the levels of renilla luciferase reporter was observed as compared to control samples in the absence of compound and was determined by non-linear fitting of compound dose-response data. The EC50 was approximated if maximum percentage inhibition was less than 90% and more than 70%.
In general terms: A replicon is a self-replicating genome or part of one, used to study replication in cells.
The pIC50 is −log10 of the IC50, conventionally taken in molar units. Regarding `COC(=O)N[C@H]1CCc2cccc3c2N(C1=O)[C@H](C(=O)N1CCC[C@H]1C(=O)Nc1ccc(-c2ccc(-c4cnc([C@@H]5CCCN5C(=O)[C@@H](NC(=O)OC)C(C)C)[nH]4)cc2)cc1)C3` [Compound I-1, {(2S,5S)-2-[(S)-2-(4′-{2-[(S)-1-((S)-2-Methoxycarbonylamino-3-methyl-butyryl)-pyrrolidin-2-yl]-3H-imidazol-4-yl}-biphenyl-4-ylcarbamoyl)-pyrrolidine-1-carbonyl]-4-oxo-1,2,4,5,6,7-hexahydro-azepino[3,2,1-hi]indol-5-yl}-carbamic acid methyl ester], the pIC50 is 8.08. The figure for `COC(=O)N[C@H]1CCC(=O)N2CCC[C@@H](C(=O)N3CCC[C@H]3C(=O)Nc3ccc(-c4ccc(-c5cnc([C@@H]6CCCN6C(=O)[C@@H](NC(=O)OC)C(C)C)[nH]5)cc4)cc3)N2C1=O` [Compound I-2, {(4S,7S)-4-[(S)-2-(4′-{2-[(S)-1-((S)-2-Methoxycarbonylamino-3-methyl-butyryl)-pyrrolidin-2-yl]-3H-imidazol-4-yl}-biphenyl-4-ylcarbamoyl)-pyrrolidine-1-carbonyl]-6,10-dioxo-octahydro-pyridazino[1,2-a][1,2]diazepin-7-yl}-carbamic acid methyl ester] is 6.72; for `COC(=O)N[C@H]1CCc2cccc3c2N(C1=O)[C@H](C(=O)N1CCC[C@H]1C(=O)Nc1ccc(-c2ccc(-c4cnc([C@@H]5CC(F)(F)CN5C(=O)[C@@H](NC(=O)OC)C(C)C)[nH]4)cc2)cc1)C3` [Compound I-3, {(2S,5S)-2-[(S)-2-(4′-{2-[(S)-1-((S)-2-Methoxycarbonylamino-3-methyl-butyryl)-4,4-difluoropyrrolidin-2-yl]-3H-imidazol-4-yl}-biphenyl-4-ylcarbamoyl)-pyrrolidine-1-carbonyl]-4-oxo-1,2,4,5,6,7-hexahydro-azepino[3,2,1-hi]indol-5-yl}-carbamic acid methyl ester] it is 6.83.

For the molecule `COC(=O)N[C@H]1CCc2cccc3c2N(C1=O)[C@H](C(=O)N1CCC[C@H]1C(=O)Nc1ccc(-c2ccc(-c4[nH]c([C@@H]5CCCN5C(=O)[C@@H](NC(=O)OC)C(C)C)nc4Cl)cc2)cc1)C3` [Compound I-4, {(2S,5S)-2-[(S)-2-(4′-{5-Chloro-2-[(S)-1-((S)-2-methoxycarbonylamino-3-methyl-butyryl)-pyrrolidin-2-yl]-3H-imidazol-4-yl}-biphenyl-4-ylcarbamoyl)-pyrrolidine-1-carbonyl]-4-oxo-1,2,4,5,6,7-hexahydro-azepino[3,2,1-hi]indol-5-yl}-carbamic acid methyl ester], the negative-log IC50 (pIC50) is 8.86.

Regarding `COC(=O)N[C@H](C(=O)N1CCC[C@H]1C(=O)N1CCC[C@H]1C(=O)Nc1ccc(-c2ccc(-c3cnc([C@@H]4CCCN4C(=O)[C@@H](NC(=O)OC)C(C)C)[nH]3)cc2)cc1)C(C)C` [Compound I-5, ((S)-1-{(S)-2-[(S)-2-(4′-{2-[(S)-1-((S)-2-Methoxycarbonylamino-3-methyl-butyryl)-pyrrolidin-2-yl]-3H-imidazol-4-yl}-biphenyl-4-ylcarbamoyl)-pyrrolidine-1-carbonyl]-pyrrolidine-1-carbonyl}-2-methyl-propyl)-carbamic acid methyl ester], the pIC50 is 8.31. The same measure for `COC(=O)N[C@H](C(=O)N1CCC[C@H]1c1ncc(-c2ccc(-c3ccc(NC(=O)[C@@H]4CCCN4C(=O)[C@@H]4CCCN4C(=O)[C@H](NC(=O)OC)c4ccccc4)cc3)cc2)[nH]1)C(C)C` [Compound I-6, [(S)-1-((S)-2-{5-[4′-({(S)-1-[(S)-1-((R)-2-Methoxycarbonylamino-2-phenyl-acetyl)-pyrrolidine-2-carbonyl]-pyrrolidine-2-carbonyl}-amino)-biphenyl-4-yl]-1H-imidazol-2-yl}-pyrrolidine-1-carbonyl)-2-methyl-propyl]-carbamic acid methyl ester]: 7.16.
